Holding throughout (format): cell-based, human
Test [1] has as its system hESC-derived IM cells. The experiment in a line: Differentiation of IM to ureteric epithelium and metanephric mesenchyme/nephron progenitors (IF, PCR). Particulars: for production of mesenchyme (HOXD11, SIX2, SIX1, WT1, EYA1 expression): CHIR99021 at 1 μM through Stage 2 and 3 and RA antagonist added. As to the method:
(§1) HES3 (MIXL1^GFP/wt) cells were routinely cultured on irradiated MEF feeder cells in F12/DMEM (Life Technologies) supplemented with 20% KnockOut serum replacement (Life Technologies), 100 μM MEM NEAA (Life Technologies), 110 μM 2-mercaptoethanol (Life Technologies), 1×penicillin/streptomycin (Life Technologies), 1× Glutamax (Life Technologies) and 10 ng/mL bFGF (R&D systems). The day before starting differentiation, cells were plated at 12,000-15,000 cells/cm^2 on a Matrigel coated 96-well plate. After overnight culture, cells were exposed to 30 ng/mL BMP4 (R&D systems) and 10 ng/mL Activin A (R&D systems) or 8 μM CHIR99021 in a previously established serum free media APEL for 2-3 days, then 200 ng/mL FGF9 and 1 μg/mL Heparin in APEL media for 4 days to induce IM cells. Subsequently cells were exposed to 200 ng/mL FGF9, 50 ng/mL BMP7, 0.1 μM RA and 1 μg/mL Heparin for 4-11 days in case of BMP4/Activin A induction. In case of CHIR99021 induction, cells were exposed to 200 ng/mL FGF9 and 1 μg/mL Heparin for 6 days then cultured in APEL basal media for another 6 days. Media was changed every 2 days.
Cells were fixed with 4% Paraformaldehyde in PBS for 10 min at 4° C. followed by a wash with PBS. Then cells were blocked with 1% BSA, 0.2% milk, 0.3% Triton X/PBS for 1 hr at RT and incubated with primary antibodies overnight at 4° C.
Secondary antibodies were incubated for 1 hr at RT. The following antibodies and dilutions were used: rabbit anti-PAX2 (1:200, #71-6000, Zymed Laboratories Inc.), goat anti-OSR1 (1:75, #sc-67723, Santa Cruz Biotechnology), goat anti-LHX1 (1:75, #sc-19341, Santa Cruz Biotechnology), mouse anti-TBX6 (1:200, AF4744, R&D systems), goat anti-SOX17 (1:200, #AF1924, R&D systems), rabbit anti-SIX2 (1:200, #11562-1-AP, Proteintech), mouse anti-ECAD (1:200, #610181, BD Biosciences), rabbit anti-WT1 (1:100, #sc-192, Santa Cruz Biotechnology), mouse anti-HOXD11 (1:200, #SAB1403944, Sigma-Aldrich), goat anti-GATA3 (1:200, AF2605, R&D systems), rabbit anti-JAG1 (1:200, #ab7771, Abcam), rabbit anti-CDH6 (1:100, #HPA007047, Sigma Aldrich) and goat anti-SYNPO (1:200, #sc-21537, Santa Cruz Biotechnology). Secondary antibodies were: Alexa-488-conjugated goat anti-rabbit, Alexa-594-conjugated donkey anti-rabbit, Alexa-488-conjugated donkey anti-goat and Alexa-594-conjugated goat anti-mouse (1:250, Life Technologies). Images were taken using Nikon Ti—U microscope or Zeiss LSM 510 Meta UV confocal microscope. […]
(§2) Total RNA was extracted from cells using RNeasy micro kit (QIAGEN) and cDNA was synthesized from >100 ng RNA using Super Script III reverse transcriptase (Life Technologies). Quantitive RT-PCR (qRT-PCR) analyses were performed with Syber Green (Applied Biosystems) by ABI PRISM 7500 real-time PCR machine. […]

Test [2] relates to reporter hESC line, MIXL1GFP/wt. The experiment in a line: Posterior primitive streak induction from MIXL1-GFP reporter hESC (FACS, qRT-PCR). As to the method:
as §1, with “Media was changed every 2 days.” left out
as §2
Background: In qPCR the cycle at which signal appears reflects the starting amount.

The subject of test [3] is hESC-induced posterior primitive streak. The experiment in a line: Intermediate mesoderm (IM) induction from hESC-induced posterior primitive streak (IF, qRT-PCR). As to the method:
as §1
Cells were fixed with 4% Paraformaldehyde in PBS for 10 min at 4° C. followed by a wash with PBS. […]
as §2
To quantify the proportion of differentiated cells positive for PAX2^+, LHX1^+, SOX17^+, SIX2^+ or WT1^+, cells were immunofluorescently stained with each antibody together with the nuclear stain, DAPI. The ratio of differentiated cells to total cells was manually counted using Image J in 1 or 2 representative fields per experiment (total 3-5 representative fields from 3 independent experiments, 1-1.5×10^3 cells in total), using an Olympus BX-51 microscope, 10× objective.

The record followed here is patent US20240344034A1, “Renal Progenitor Cells” (The University of Queensland, priority 2013, published 2024).

As for `Cc1ccc(C2=CCC(C)(C)c3ccc(C#Cc4ccc(C(=O)O)cc4)cc32)cc1` [AGN193109], the “production of mesenchyme (HOXD11, SIX2, SIX1, WT1, EYA1 expression)” value in test [1] was “improved”.

As for `Cc1c[nH]c(-c2cnc(NCCNc3ccc(C#N)cn3)nc2-c2ccc(Cl)cc2Cl)n1` [CHIR99021], the “production of mesenchyme (HOXD11, SIX2, SIX1, WT1, EYA1 expression)” value in test [1] is on record as “improved”. Also, the “Stage 1 concentration giving optimal ratio of epithelium to nephron progenitors” value in test [1] (first 2 days in culture, cultured out to day 18, 6 μM better than 8 μM) was 6 µM. Also, in test [2] (comparative expression of MIXL1, T, SOX17, 5, 7, 9 μM tested), the “concentration optimal for posterior primitive streak” value is above 7 µM. For the same molecule, in test [2] (high BMP4/low Activin A (30/10 ng/mL) or high CHIR99021, 3 days culture, FACS), the “cells became GFP+ (MIXL1-GFP positive posterior primitive streak cells)” value is “approximately 90%”.

As to `CCN(CC)CCCCNc1ncc2cc(-c3cc(OC)cc(OC)c3)c(NC(=O)NC(C)(C)C)nc2n1` [PD173074], the “PAX2 and LHX1 induction in response to FGF2 or FGF9” value in test [3] (day 6, FGF 200 ng/ml day 2 to 6) is reported as “dramatically inhibited”.

B1: FGF8: FGF family member (protein, UniProt P55075 23-233, looked up)
Fibroblast growth factor 8: QEGPGRGPALGRELASLFRAGREPQGVSQQHVREQSLVTDQLSRRLIRTYQLYSRTSGKHVQVLANKRINAMAEDGDPFAKLIVETDTFGSRVRVRGAETGLYICMNKKGKLIAKSNGKGKDCVFTEIVLENNYTALQNAKYEGWYMAFTRKGRPRKGSKTRQHQREVHFMKRLPRGHHTTEQSLRFEFLNYPPFTRSLRGSQRTWAPEPR
With B1, the “coexpression of OSR1, PAX2 and LHX1 (IM induction)” value in test [3] (200 ng/mL FGF for 4 days) is given as “not”.

B2: BMP7: bone morphogenic protein 7 (protein, UniProt P18075 293-431, looked up)
Bone morphogenetic protein 7: STGSKQRSQNRSKTPKNQEALRMANVAENSSSDQRQACKKHELYVSFRDLGWQDWIIAPEGYAAYYCEGECAFPLNSYMNATNHAIVQTLVHFINPETVPKPCCAPTQLNAISVLYFDDSSNVILKKYRNMVVRACGCH
B2: the effect on mesenchyme entry in test [1] (BMP7 together with FGF9 in Stage 3) is on record as “slightly improves the mesenchyme”.

B3: NOG: BMP antagonist NOG (noggin) (protein, UniProt Q13253 28-232, looked up)
Noggin: QHYLHIRPAPSDNLPLVDLIEHPDPIFDPKEKDLNETLLRSLLGGHYDPGFMATSPPEDRPGGGGGAAGGAEDLAELDQLLRQRPSGAMPSEIKGLEFSEGLAQGKKQRLSKKLRRKLQMWLWSQTFCPVLYAWNDLGSRFWPRYVKVGSCFSKRSCSVPEGMVCKPSKSVHLTVLRWRCQRRGGQRCGWIPIQYPIISECKCSC
For B3, the “FOXF1 (LPM marker) expression” value in test [3] (NOG together with FGF9 from day 2 to 6, qRT-PCR day 6) is “effectively suppressed”.
